From patent publication US20260191861A1, “INFLAMMASOME AND VEGF INHIBITION FOR RETINAL VASCULAR DISEASES” (University of Virginia Patent Foundation, priority 2022, published 2026)
“Also recorded” adds a separate entry of the source.

Key:
[1] = tested on: caspase-1; experiment: Rhegmatogenous retinal detachment (RRD) model: retinal caspase-1 cleavage by immunoblot; type: in vivo, mouse
Protocol: (§1) All experiments involving animals were approved by the University of Virginia Institutional Animal Care and Use Committee (IACUC) and adhered to the Association for Research in Vision and Ophthalmology (ARVO) Statement for the Use of Animals in Ophthalmic and Vision Research. Animal subjects were male and female mice aged 6 to 10 weeks. Wild type C57BL/6J mice were obtained from the Jackson Laboratory (Bar Harbor, ME, USA). To anesthetize mice for study procedures, ketamine hydrochloride (100 mg/kg; Ft. Dodge Animal Health, Overland Park, KS, USA) and xylazine (10 mg/kg; Phoenix Scientific, St. Joseph, MO, USA) were delivered by intraperitoneal (IP) injection. Pupils were dilated with topical 1% tropicamide and 2.5% phenylephrine (Alcon Laboratories, Ft. Worth, TX, USA).
(§2) RRD model was established by subretinal injection (SRI) of 3 μl 1% carboxymethyl cellulose (CMC; Refresh Liquigel, Allergan, Irvine, CA, USA).
(§3) NRTIs and K-9 were delivered via intraperitoneal (IP) injection in equimolar amounts. […] Kamuvudine K-9 (3-methyl-3TC, MW=273 g/mol) was administered either at a low dose (K-9L; 90 mg/kg daily) or a high dose (K-9H; 60 mg/kg twice daily, equimolar to NRTI doses). IP injection of phosphate buffered saline (PBS) was used as control.
Retinal tissue was extracted and lysed by sonication in radioimmunoprecipitation assay (RIPA) buffer (MilliporeSigma, Darmstadt, Germany). The Pierce BCA Protein Assay Kit (ThermoFisher Scientific, Waltham, MA, USA) was used to determine protein concentrations of interest. Samples were prepared that contained equal concentrations of total protein (10-100 μg). Protein samples were resolved by SDS-PAGE and transferred onto Immobilon-FL PVDF membranes (Millipore, Billerica, MA, USA). Membranes were blocked in Odyssey Blocking Buffer (PBS) for 1 hour at room temperature, and then incubated overnight with primary antibody at 4° C. Across study experiments, the following antibodies were used: anti-mouse caspase-1 (1:1000; AG-20B-0042; AdipoGen Life Sciences, San Diego, CA, USA), and anti-mouse GAPDH (1:1000; 2118; Cell Signaling, Danvers, MA, USA). […]

[2] = tested on: photoreceptors (TUNEL+ cells in the ONL); experiment: RRD model: TUNEL assay of the retinal outer nuclear layer; type: in vivo, mouse
Protocol: as §1, §2, §3
Retinal cross cryosections at a thickness of 10 μm were stained with TUNEL (TdT-mediated dUTP nick-end labeling) using the In Situ Cell Death Detection Kit (Roche Diagnostics, Indianapolis, IN, USA) according to the manufacturer's′ instructions. The sections were wet-mounted with ProLong anti-fade reagent with DAPI (P36935, ThermoFisher Scientific, Waltham, MA, USA) and visualized using an A1R laser confocal microscope (Nikon, Tokyo, Japan). Fourteen representative sections, including the optic nerve, were used per treatment group. To calculate the number of TUNEL+ cells in the outer nuclear layer (ONL), the retina analysis toolkit of ImageJ (2.1.0; NIH, Bethesda, MD, USA) was used.

[3] = tested on: participants with diabetic macular edema; experiment: Retinal central subfield thickness by spectral-domain OCT, including synthetic controls from DRCR.net Protocol T; type: in vivo, human; conditions: for IPTW mixed-effect model: change in central subfield thickness, Treatment × week [8] estimate / Mixed-effect model: change in central subfield thickness, Treatment × week [8] estimate: interaction term; for IPTW mixed-effect model: change in central subfield thickness from baseline, treatment estimate (ref = Placebo) / Mixed-effect model: change in central subfield thickness from baseline, treatment estimate (ref = Placebo): main effect (week 4); for Mixed-effect model: change in central subfield thickness, Treatment × week [8] estimate / Mixed-effect model: change in central subfield thickness from baseline, treatment estimate (ref = Placebo): unweighted model
Protocol: (§4) Propensity score methods were used to select DRCR.net Protocol T study participants similar to lamivudine-treated patients. Inverse probability treatment weights (IPTW) and propensity score matching were used. To estimate the IPTW weights, a multinomial logistic regression was used to estimate propensity scores using important predictors including baseline visual acuity and baseline central subfield thickness along with age, gender, and duration of diabetes. Weights were calculated as the reciprocal of the estimated propensity score of the actual treatment received. Weights were then truncated at the 99th percentile. For the propensity score matched analysis, lamivudine-treated patients were matched to each DRCR.net Protocol T treatment arm (aflibercept, bevacizumab, ranibizumab) and placebo group, separately. Due to the limited sample size for matching within each group, propensity score models included the most important predictors of acuity change including baseline visual acuity, age and duration of diabetes.
(§5) For the IPTW analysis, a mixed-effects weighted model was fit with subject-specific random effects. […] The model's estimates, confidence intervals (CI), and P values were reported for each predictor. Additionally, model-based contrasts were conducted to compare the change in VALS from baseline between lamivudine and the Protocol T treatments.
(§6) Secondary outcomes included the change in central subfield thickness, the percentage of eyes with an improvement in VALS of 15 or more, the correlation between improvements in visual acuity and central subfield thickness, and systemic and ocular adverse events. Change in central subfield thickness was estimated using mixed-effects models, similar to the VALS analysis. To analyze a VALS improvement of at least 15 letters, logistic regression using generalized estimating equations (GEEs) was specified with an exchangeable correlation matrix. Model-based contrasts were estimated to make pairwise treatment comparisons.
In all consultations, patients underwent tomography with the Spectralis device (Heidelberg) under mydriasis. The acquisition protocol was the 6×6 mm region centered on the fovea. Data analysis from SD-OCT was restricted to the central field (1 mm in diameter) Intravitreous Injection of Anti-VEGF

[4] = tested on: participants with diabetic macular edema; experiment: Visual acuity (VALS) compared with synthetic controls from the DRCR.net Protocol T study (IPTW, propensity score matching, GEE); type: in vivo, human
Source text: The second analysis included participants from the lamivudine versus placebo trial, along with a synthetic comparator created using data from the DRCR.net Protocol T study. The source of the data is DRCR.net (2018) A Comparative Effectiveness Study of Intravitreal Aflibercept, Bevacizumab and Ranibizumab for Diabetic Macular Edema, retrieved from https://public.jaeb.org/drcrnet/stdy/download/206. The analyses, content, and conclusions presented herein are solely the responsibility of the authors and have not been reviewed or approved by DRCR.net.
Inclusion criteria for participants from the DRCR.net Protocol T study were based on their similarity to the lamivudine versus placebo trial design. This involved selecting only patients with type 2 diabetes, study eyes with a baseline VALS<69, and complete follow-up visual acuity measurements at weeks 4 and 8.
as §4, §5
For each propensity score matched group (e.g., lamivudine-bevacizumab, lamivudine-aflibercept), a mixed effect model was fit estimating the change in visual acuity from baseline. Subject specific random effect was included along with fixed effect predictors: treatment group, baseline VALS, central subfield thickness, eye (left vs right), age, sex, race and type 2 diabetes duration.
as §6

[5] = tested on: participants with diabetic macular edema; conditions: week 8, included DRCR.net Protocol T patients (synthetic controls); cited from earlier work
[6] = tested on: participants with diabetic macular edema; conditions: week 8, synthetic controls of DRCR.net Protocol T; cited from earlier work
[7] = day 3 RRD, equimolar IP doses twice daily (K-9H 60 mg/kg, 3TC 50 mg/kg)
[8] = three days after inducing RRD, IP treatment
[9] = IPTW model with synthetic controls
[10] = Original (unweighted) model with synthetic controls

Substance	degree of suppression of caspase-1 activation [1, 7]	retinal cleaved caspase-1 compared with PBS-treated mice [1, 8]	degree of photoreceptor protection [2, 7]	number of TUNEL+ cells in the ONL of the retina compared with PBS-treatment [2, 8]	IPTW mixed-effect model: change in central subfield thickness, Treatment × week [8] estimate [3]	IPTW mixed-effect model: change in central subfield thickness from baseline, treatment estimate (ref = Placebo) [3]	Mixed-effect model: change in central subfield thickness, Treatment × week [8] estimate [3]	Mixed-effect model: change in central subfield thickness from baseline, treatment estimate (ref = Placebo) [3]	GEE model: odds ratio of change in VALS from baseline ≥15 (ref = Placebo) ([4]; IPTW model)	Mixed effect model: change from baseline visual acuity, treatment estimate (ref: Placebo) [4, 9]	Mixed effect model: change from baseline visual acuity, treatment estimate (ref: Placebo) ([4]; IPTW model with synthetic controls, listed as aflibercept)	Mixed effect model: change from baseline visual acuity, treatment estimate (ref: Placebo) [4, 10]	GEE model: odds ratio of change in VALS from baseline ≥15 (ref = Placebo) ([4]; Original model)	percentage of eyes with improvement in VALS of 15 or more [5]	percentage of eyes with VALS improvement of 15 or more that had minimal change in central subfield thickness (≤50 μm) [6]	Mixed effect model: change from baseline visual acuity, treatment estimate (ref: Placebo) ([4]; IPTW model with synthetic controls, listed as bevacizumab)	Mixed effect model: change from baseline visual acuity, treatment estimate (ref: Placebo) ([4]; IPTW model with synthetic controls, listed as ranibizumab)
3-methyl-3TC [K-9]	84%+1%	dose-dependent and complete reduction; also recorded: inhibits RRD-induced caspase-1 cleavage	56%+7%	dose-dependent reduction; also recorded: protects photoreceptors	–	–	–	–	–	–	–	–	–	–	–	–	–
Aflibercept: inhibitor of vascular endothelial growth factor (VEGF), intravitreous	–	–	–	–	68.54 μm	−104.33 μm	74.83 μm	−114.55 μm	19.39	8.42	8.4	8.48	11.15	38%	42%	–	–
Bevacizumab: inhibitor of vascular endothelial growth factor (VEGF), intravitreous	–	–	–	–	74.82 μm	−66.35 μm	84.87 μm	−75.55 μm	10.33	5.32	–	5.36	6.15	24%	29%	5.3	–
Ranibizumab: inhibitor of vascular endothelial growth factor (VEGF), intravitreous	–	–	–	–	75 μm	−113.67 μm	85.69 μm	−122.12 μm	19.96	7.12	–	7.04	11.14	34%	41%	–	7.1
